Laboratory results as given in paper PMC3536056 (Journal of immunology (Baltimore, Md. : 1950), 2012).
Entries after “also recorded” stand apart in the source; their conditions may differ.

Legend:
D^b = conditions: Flu determinants; cited from earlier work
[1] = target: H-2D^b (mouse (endogenous in RMA/s)); test: flow cytometry on cells
H-2D^b = target: T1, H-2D^b (Mus musculus, UniProt P01899); test: Stability; format: binding; conditions: for half-life of peptide/H-2D^b complexes: RMA/s cells loaded overnight at 29 °C, washed, decay at 37 °C, flow cytometry; for pMHC stability (in words): versus wild type site V peptide, RMA/s decay at 37 °C
T1 sequence (P01899 25-362): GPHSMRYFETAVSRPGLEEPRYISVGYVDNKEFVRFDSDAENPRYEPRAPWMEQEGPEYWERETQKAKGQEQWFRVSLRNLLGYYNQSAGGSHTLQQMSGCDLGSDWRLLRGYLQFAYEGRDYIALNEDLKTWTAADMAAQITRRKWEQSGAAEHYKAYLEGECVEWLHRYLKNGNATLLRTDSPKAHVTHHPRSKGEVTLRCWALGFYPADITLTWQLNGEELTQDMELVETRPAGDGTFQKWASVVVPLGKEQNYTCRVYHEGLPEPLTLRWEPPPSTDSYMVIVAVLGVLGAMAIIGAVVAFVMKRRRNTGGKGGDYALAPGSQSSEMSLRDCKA
T1 sequence (P01887 21-119 partner): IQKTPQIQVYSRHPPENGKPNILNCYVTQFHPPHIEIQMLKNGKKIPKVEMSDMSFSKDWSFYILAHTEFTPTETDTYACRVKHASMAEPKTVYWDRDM

TCR-V T cells = format: cell-based, mice; conditions: for functional avidity for TCR-V T cells (in words): 10^−7–10^−12 M peptide, versus wild type site V
[2] = system: polyclonal site V-specific T cells; test: Intracellular IFN-γ, peptide-stimulated polyclonal site V-specific T cells; format: cell-based, mice; conditions: 10^−7–10^−12 M peptide; versus wild type site V
naïve TCR-V T cells = test: In vivo proliferation of CFSE-labeled naïve TCR-V cells; parameters: species or system B6 mice; conditions: peptide s.c. 100 μg in IFA, or rVV i.v. 10^7 PFU; 3 days

Row | Substance | half-life of the pMHC complex [1] | half-life of peptide/H-2D^b complexes (H-2D^b) | pMHC stability (in words) (H-2D^b) | also measured
1 | PA224–233: dominant D^b-Flu determinant (SSLENFRAYV; UniProt P03433 224-233, looked up, fragment) | – | – | – | estimated half-life of D^b pMHC (D^b): ~16 hours
2 | SV40 TAg site I peptide (…) | > 4 hours | – | – | –
3 | site V variant peptide G490A (…) | 2.75 hours | – | – | –
4 | site V variant peptide Q489A (…) | 4 hours | – | – | fold increase of relative affinity against wild type site V [1]: 4 fold
5 | AGINNLDNL [Q489A] | – | approximately 4 hours | formed more stable pMHC than the wild type site V peptide; also recorded: most dramatic increase in pMHC stability | functional avidity for TCR-V T cells (in words) (TCR-V T cells): not increased; functional avidity for polyclonal site V-specific T cells (in words) [2]: not increased; TCR-V division on bypassing cross-presentation (in words) (naïve TCR-V T cells): almost all of the TCR-V cells underwent division
6 | SV40 TAg site V peptide (…) | 2 hours | – | – | –
7 | QAINNLDNL [G490A] | – | ~2.75 h | formed more stable pMHC than the wild type site V peptide; also recorded: moderately increased stability compared to wt site V; also recorded: modest increase in pMHC stability | reduction of functional avidity for TCR-V T cells (TCR-V T cells): five; functional avidity for TCR-V T cells (in words) (TCR-V T cells): not increased; functional avidity for polyclonal site V-specific T cells (in words) [2]: not increased
8 | SAINNYAQKL [site I, reference compound] | – | greater than 4 hours | most stable | –
9 | ASNENMETM [NP366–374] | – | – | – | estimated half-life of D^b pMHC (D^b): ~ 4 hours
